This is an account of results in article PMC4269296 (Nucleosides, nucleotides & nucleic acids, 2015).

pEC50: −log10 of the molar value.

The test system of one data set is R5 (BaL) HIV-1. The experiment in a line: Single-round. The class given is cell-based. As to conditions: Human immunodeficiency virus 1, BAL, MAGI, read-out: Cell-Free Virus R5 EC50.
The subject of another data set is X4 (IIIB) HIV-1. In words: Single-round. As to conditions: Human immunodeficiency virus 1, IIIB, MAGI, read-out: Cell-Free Virus X4 EC50. In kind it is cell-based.
The test system of data set [1] is Cell-Associated Virus (X4). The experiment in a line: Cell-associated transmission assay. In kind it is cell-based, HIV-1. As to conditions: for pEC50: Human immunodeficiency virus 1, read-out: Cell-Associated Virus CTC EC50; for Cell-Associated Virus CTC EC50: cell-associated transmission assay (X4).
In data set [2] the test system is X4 and R5 cell free virus. In kind it is cell-based, HIV-1. As to conditions: for pEC50: Human immunodeficiency virus 1, read-out: EC50 against X4 and R5 cell free virus.
A short description of a further data set: in vitro. As to conditions: human.
For data set [3], the system named is HIV infected T4 lymphocytes. As to conditions: read-out: EC50 against HIV infected T4 lymphocytes; cited from earlier work.

For the molecule `Nc1ccn([C@@H]2CS[C@H](CO)O2)c(=O)n1` [3TC (2), (−)-2′,3′-Dideoxy-3′-thiacytidine], the pEC50 in the data set with R5 (BaL) HIV-1 was 5.59; with X4 (IIIB) HIV-1, 5.12; in data set [1], 4.74; in data set [2], 5.12 to 5.59. Besides, in the data set “in vitro”, the EC50 at 2 h was > 100 µM.
For the molecule `CCSCCCCCCCCCCCC(=O)O` [12-Thioethyldodecanoic acid], in data set [3], the pEC50 was 5.03.
As for `N=C(N)NCCC[C@H](NC(=O)[C@H](CCCNC(=N)N)NC(=O)[C@H](CCCNC(=N)N)NC(=O)[C@H](CCCNC(=N)N)NC(=O)[C@H](CCCNC(=N)N)NC(=O)[C@H](CCCNC(=N)N)NC(=O)[C@H](CCCNC(=N)N)NC(=O)CCCCCCCCCCCCC(=O)OC[C@@H]1O[C@H](n2ccc(N)nc2=O)CS1)C(=O)O` [Compound 14, 1-[(−)-2′,3′-Dideoxy-3′-thiacytidine]tetradecan-1,14-dioate conjugate of PolyArg], in data set [1], the “Cell-Associated Virus CTC EC50” value is >30 µM. In data set [2] (ratio of R5 and X4 EC50), the “fold higher inhibition against X4 virus than the R5 virus strain” value was “approximately 2 fold”.
As for `N=C(N)NCCC[C@H](NC(=O)[C@H](CCCNC(=N)N)NC(=O)[C@H](CCCNC(=N)N)NC(=O)[C@H](CCCNC(=N)N)NC(=O)[C@H](CCCNC(=N)N)NC(=O)[C@H](CCCNC(=N)N)NC(=O)[C@H](CCCNC(=N)N)NC(=O)CCCCCCCCCCCCC(=O)OC[C@@H]1O[C@H](n2cc(F)c(N)nc2=O)CS1)C(=O)O` [Compound 15, 1-[(−)-2′,3′-dideoxy-5-fluoro-3′-thiacytidine]tetradecan-1,14-dioate conjugate of PolyArg], the “Cell-Associated Virus CTC EC50” value in data set [1] was >30 µM.
Regarding `Cc1cn([C@H]2C[C@H](F)[C@@H](CO)O2)c(=O)[nH]c1=O` [FLT (1), 3′-Fluoro-2′,3′-deoxythymidine], the pEC50 in the data set on R5 (BaL) HIV-1 was 7.00; in the data set with X4 (IIIB) HIV-1 it was 6.70; in data set [1] it was < 4.00; in data set [2] it was 6.70 to 7.00. Moreover, in the data set “in vitro”, the EC50 at 2 h is > 100 µM.
Regarding `Nc1nc(=O)n([C@@H]2CS[C@H](CO)O2)cc1F` [FTC (3), (−) 2′,3′–Dideoxy-5-fluoro-3′-thiacytidine], the pEC50 is 4.66 in data set [1] and 6.32 to 6.74 in data set [2]. In addition, the EC50 at 2 h in “in vitro” was > 100 µM.
